Reference: PubChem BioAssay (NCI)
Values joined by “and” are separate entries in the source; they are usually repeats but may differ in a detail not shown here. Equal values may be shown once.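 GI50 is the concentration that inhibits growth by half. At the TGI there is no net growth.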

Experiments:
Experiment in all cases: NCI-60 cell line screen, 384-well format
NCI-H226 lung = tested on: NCI-H226 lung
NCI-H23 lung = tested on: NCI-H23 lung
NCI-H322M lung = tested on: NCI-H322M lung
NCI-H460 NSCLC = tested on: NCI-H460 NSCLC
NCI-H522 lung = tested on: NCI-H522 lung
NCI/ADR-RES ovarian = tested on: NCI/ADR-RES ovarian
OVCAR-3 ovarian = tested on: OVCAR-3 ovarian
OVCAR-4 ovarian = tested on: OVCAR-4 ovarian
OVCAR-5 ovarian = tested on: OVCAR-5 ovarian
PC-3 prostate = tested on: PC-3 prostate
RPMI-8226 leukemia = tested on: RPMI-8226 leukemia
RXF 393 renal = tested on: RXF 393 renal
SF-268 CNS = tested on: SF-268 CNS
SF-295 CNS = tested on: SF-295 CNS
SF-539 CNS = tested on: SF-539 CNS
SK-MEL-2 melanoma = tested on: SK-MEL-2 melanoma
SK-MEL-28 melanoma = tested on: SK-MEL-28 melanoma
SK-MEL-5 melanoma = tested on: SK-MEL-5 melanoma
SK-OV-3 ovarian = tested on: SK-OV-3 ovarian
SN12C renal = tested on: SN12C renal
SNB-19 CNS = tested on: SNB-19 CNS
SNB-75 CNS = tested on: SNB-75 CNS
SR leukemia = tested on: SR leukemia
SW-620 colon = tested on: SW-620 colon
T-47D breast = tested on: T-47D breast
TK-10 renal = tested on: TK-10 renal
U251 glioblastoma = tested on: U251 glioblastoma
UACC-257 melanoma = tested on: UACC-257 melanoma
UACC-62 melanoma = tested on: UACC-62 melanoma
UO-31 renal = tested on: UO-31 renal

CC1Cc2ccccc2N1C(=O)Cc1nc(N2CCOCC2)cc(=O)[nH]1 (centres undefined)
TGI (NCI-H226 lung): > 100 µM | GI50 (NCI-H23 lung): 37.6 µM and > 100 µM | TGI (NCI-H23 lung): > 100 µM | GI50 (NCI-H322M lung): 12.5 µM and 38.2 µM | TGI (NCI-H322M lung): 99.7 µM and > 100 µM | GI50 (NCI-H460 NSCLC): 8.38 µM and 29.9 µM | TGI (NCI-H460 NSCLC): > 100 µM | GI50 (NCI-H522 lung): 25.2 µM and 57.7 µM | TGI (NCI-H522 lung): > 100 µM | GI50 (NCI/ADR-RES ovarian): > 100 µM | TGI (NCI/ADR-RES ovarian): > 100 µM | GI50 (OVCAR-3 ovarian): 2.41 µM and 8.56 µM | TGI (OVCAR-3 ovarian): 24.6 µM and > 100 µM | GI50 (OVCAR-4 ovarian): > 100 µM and 74.9 µM | TGI (OVCAR-4 ovarian): > 100 µM | GI50 (OVCAR-5 ovarian): 18.9 µM and 58.3 µM | TGI (OVCAR-5 ovarian): > 100 µM | GI50 (PC-3 prostate): 1.86 µM and 4.92 µM | TGI (PC-3 prostate): > 100 µM | GI50 (RPMI-8226 leukemia): 11.8 µM and 36.3 µM | TGI (RPMI-8226 leukemia): 24.9 µM and > 100 µM | GI50 (RXF 393 renal): 0.266 µM and 1.16 µM | TGI (RXF 393 renal): 3.44 µM and 15 µM | GI50 (SF-268 CNS): 18.5 µM and 49.8 µM | TGI (SF-268 CNS): > 100 µM | GI50 (SF-295 CNS): 5.17 µM and 17.9 µM | TGI (SF-295 CNS): > 100 µM | GI50 (SF-539 CNS): 22.4 µM and 59.7 µM | TGI (SF-539 CNS): > 100 µM | GI50 (SK-MEL-2 melanoma): 63.2 µM and > 100 µM | TGI (SK-MEL-2 melanoma): > 100 µM | GI50 (SK-MEL-28 melanoma): 6.88 µM and 26.8 µM | TGI (SK-MEL-28 melanoma): > 100 µM | GI50 (SK-MEL-5 melanoma): 20.2 µM and 33.2 µM | TGI (SK-MEL-5 melanoma): > 100 µM | GI50 (SK-OV-3 ovarian): 8.17 µM and 16.2 µM | TGI (SK-OV-3 ovarian): > 100 µM | GI50 (SN12C renal): 4.74 µM and 22.6 µM | TGI (SN12C renal): > 100 µM | GI50 (SNB-19 CNS): > 100 µM | TGI (SNB-19 CNS): > 100 µM | GI50 (SNB-75 CNS): 0.561 µM and 3.1 µM | TGI (SNB-75 CNS): 25.4 µM and 40.2 µM | GI50 (SR leukemia): 14.3 µM and 21.4 µM | TGI (SR leukemia): 28.4 µM and 62.9 µM | GI50 (SW-620 colon): 64.3 µM and > 100 µM | TGI (SW-620 colon): > 100 µM | GI50 (T-47D breast): 3.31 µM and 11.2 µM | TGI (T-47D breast): 65 µM and 75.2 µM | GI50 (TK-10 renal): 7.25 µM and 25.3 µM | TGI (TK-10 renal): > 100 µM | GI50 (U251 glioblastoma): 67.8 µM and > 100 µM | TGI (U251 glioblastoma): > 100 µM | GI50 (UACC-257 melanoma): 47.9 µM and > 100 µM | TGI (UACC-257 melanoma): > 100 µM | GI50 (UACC-62 melanoma): 9.61 µM and 32.7 µM | TGI (UACC-62 melanoma): > 100 µM | GI50 (UO-31 renal): 4.59 µM and 14 µM | TGI (UO-31 renal): > 100 µM and 45.6 µM
